Measured values reported in article PMC11870044, “Exploring the Antibacterial and Antiparasitic Activity of Phenylaminonaphthoquinones—Green Synthesis, Biological Evaluation and Computational Study” (International Journal of Molecular Sciences, 2024).
Converted amounts (≈) assume the structure as drawn. Where two headings read alike, the source gives them in different places.

Legend:
[1] = Experimental log P, shake-flask method n-octanol/water; assay type: physicochemical; details: 25 ± 1 °C
Experimental: The mixture was then allowed to stand for 24 h at the same temperature for further phase separation. A stock solution with a concentration of 0.01 mol per liter in water, pre-saturated with n-octanol, was prepared for each compound. Duplicate test vessels containing a mixture of the stock solution and n-octanol (pre-saturated with water) were shaken on a vortex shaker for 5 min. Phase separation was achieved by centrifugation of the vessels for 3 min at 4000× g (25 ± 1 °C), and the concentration of the solute in the water phase (C water) was measured from their absorbance at 205 nm using a UV spectrophotometer. The partition coefficient was calculated using the following equation. Log Po/w = Log(C n-octanol/C water)
All the measurements were carried out at room temperature (25 ± 1 °C). In order to check the performance of the method, aniline was used as a reference substance.

[2] = system: Plasmodium falciparum 3D7 (chloroquine-sensitive); test: In vitro antiplasmodial screening, parasitemia by flow cytometry; assay type: cell-based; parameters: Plasmodium falciparum 3D7 Growth Inhibition (%): concentration or dose not given beside the values; details: for Plasmodium falciparum 3D7 Growth Inhibition (%): mean ± SD; for IC50: Plasmodium falciparum
Experimental: (§1) The antimalarial activity assay was performed using Plasmodium falciparum 3D7 (chloroquine-sensitive) and FCR-3 (chloroquine-resistant) reference strains, which were cultured in vitro following the method described by Trager et al. with some modifications.
(§2) The experiments were performed in 96-well culture plates, where the stock solutions of compounds 1–12 (1, 0.1, 0.01, and 0.001 µg/mL) were tested. A total of 100 µL of each product was distributed in triplicate on the culture plates, and 100 µL of a red blood cell suspension (4% hematocrit, final parasitemia of 1% ring stage) was added, resulting in a final volume of 200 µL. The test plates were incubated at 37 °C for 48 h, and parasitemia was determined by flow cytometry (BDFACScalibur). Erythrocytes were taken from each well culture plate, and 100 µL of ethidium bromide (10 µg/mL) was added and incubated for 30 min. A total of 100,000 cells per well culture plate were acquired and analyzed. The IC50 of the pure products was determined by a regression curve of the percentage inhibition of parasite activity as a function of the logarithmic dose. Chloroquine diphosphate was used as the reference drug.

[3] = system: Plasmodium falciparum FCR-3 (chloroquine-resistant); test: as above; assay type: cell-based; parameters: Plasmodium falciparum FCR-3 Growth Inhibition (%): concentration or dose not given beside the values; details: for Plasmodium falciparum FCR-3 Growth Inhibition (%): mean ± SD; for IC50: Plasmodium falciparum, read-out: Plasmodium falciparum FCR-3 IC50
Experimental: as §1, §2

[4] = system: Salmonella typhimurium (ATCC 19585); test: Minimum inhibitory concentration, broth dilution method; assay type: cell-based; details: Salmonella enterica, read-out: MIC S. typhimurium G−
Experimental: (§3) The microorganisms used were Staphylococcus aureus (ATCC 25923), Proteus mirabilis (ATCC 12453) Enterococcus faecalis (ATCC 29212), Escherichia coli (ATCC 25922), Salmonella typhimurium (ATCC 19585), and Klebsiella pneumoniae (ATCC 700603).
(§4) The antimicrobial activity of the phenylaminonaphthoquinones 1–12 was determined by the broth dilution method. The following concentrations were tested: 200, 100, 50, 25, and 12.5 μg/mL. After incubation, the microbial growth was examined. The results are expressed in minimum inhibitory concentration (MIC), the lowest concentration of phenylaminonaphthoquinones with no visible growth. The bactericidal/bacteriostatic activity was determined by sub-cultivation of the samples in normal culture media at appropriate temperatures and incubation times. The MIC of each compound was performed in triplicate. The compounds 1–12 were dissolved in DMSO. Cefazolin and cefotaxime were used as positive controls at the same compound concentrations.

[5] = system: Enterococcus faecalis (ATCC 29212); test: as above; assay type: cell-based
Experimental: as §3, §4

[6] = system: Klebsiella pneumoniae (ATCC 700603); test: as above; assay type: cell-based
Experimental: as §3, §4

[7] = system: Staphylococcus aureus (ATCC 25923); test: as above; assay type: cell-based; details: for MIC: Staphylococcus aureus; for MIC S. aureus G+: broth dilution
Experimental: as §3, §4

[8] = system: Proteus mirabilis (ATCC 12453); test: as above; assay type: cell-based
Experimental: as §3, §4

[9] = system: Escherichia coli (ATCC 25922); test: as above; assay type: cell-based
Experimental: as §3, §4

[10] = 3D7 chloroquine-sensitive, 48 h
[11] = 3D7 chloroquine-sensitive, 48 h, read-out: Plasmodium falciparum 3D7 IC50
[12] = FCR-3 chloroquine-resistant, 48 h
[13] = FCR3, FCR-3 chloroquine-resistant, 48 h
[14] = ATCC29212, broth dilution, triplicate, read-out: MIC E. faecalis G+
[15] = ATCC700603, broth dilution, triplicate, read-out: MIC K. pneumonia G−
[16] = ATCC25923, broth dilution, triplicate, read-out: MIC S. aureus G+
[17] = ATCC12453, broth dilution, triplicate, read-out: MIC P. mirabilis G+
[18] = ATCC25922, broth dilution, triplicate, read-out: MIC E. coli G−

| SMILES | logP [1] | Plasmodium falciparum 3D7 Growth Inhibition (%) [2, 10] [%] | IC50 [2, 11] [µg/mL] | Plasmodium falciparum FCR-3 Growth Inhibition (%) [3, 12] [%] | IC50 [3, 13] [µg/mL] | MIC ([4]; broth dilution, triplicate) [µg/mL] | MIC [5, 14] [µg/mL] | MIC [6, 15] [µg/mL] | MIC [7, 16] [µg/mL] | MIC [8, 17] [µg/mL] | MIC [9, 18] [µg/mL] | MIC S. aureus G+ ([7]; triplicate) [µg/mL] | also measured |
| --- | --- | --- | --- | --- | --- | --- | --- | --- | --- | --- | --- | --- | --- |
| O=C1C(Cl)=C(Nc2ccc(O)cc2)C(=O)c2ccccc21 [Compound 6] | 1.22 ± 0.13 | 41.0 ± 2.0 | > 1 | 56.0 ± 3.0 | 0.87 (≈ 2.9 µM) | 20 (≈ 66.7 µM) | 49.9 (≈ 166 µM) | 40 (≈ 133 µM) | 19.6 (≈ 65.4 µM) | 29.9 (≈ 99.8 µM) | 39.8 (≈ 133 µM) |  |  |
| Cc1ccccc1NC1=CC(=O)c2ccccc2C1=O [Compound 3] | 1.89 ± 1.12 | 98.0 ± 1.0 | 0.0049 | 97.0 ± 0.2 | 0.12 (≈ 0.456 µM) | 13.2 (≈ 50.1 µM) | 50 (≈ 190 µM) | 26.3 (≈ 99.9 µM) | 3.2 to 5.7 (≈ 12.2 to 21.6 µM) | 19.9 (≈ 75.6 µM) | 25.5 (≈ 96.8 µM) | 3.8 (≈ 14.4 µM) | Enhancement of antiplasmodial activity versus literature 2-amino/2-phenylaminonaphthoquinones ([2]; 3D7 strain, equimolar comparison): more than 250 fold; Potency relative to chloroquine against 3D7 strain ([2]; IC50 0.0049 vs 0.06 μg/mL): more than 10 fold; IC50 ([2]; 3D7, read-out: IC50 against 3D7 strain at equimolar concentrations): 18.6 nM |
| CN(C1=CC(=O)c2ccccc2C1=O)c1ccccc1 [Compound 11] | 2.31 ± 0.3 | 26.0 ± 8.0 | > 1 | 72.0 ± 2.0 | 0.55 (≈ 2.09 µM) | > 50 | 30.2 (≈ 115 µM) | > 50 | 3.2 to 5.7 (≈ 12.2 to 21.6 µM) | 44 (≈ 167 µM) | > 50 | 5.5 (≈ 20.9 µM) |  |
| O=C1C=C(Nc2ccc(O)cc2)C(=O)c2ccccc21 [Compound 5] | 1.17 ± 0.81 | 18.0 ± 1.0 |  | 61.0 ± 2.0 |  |  |  |  |  |  |  | 3.2 (≈ 12.1 µM) | IC50 ([2]; 3D7, 48 h, read-out: Plasmodium falciparum 3D7 IC50): > 1 µg/mL; IC50 ([3]; FCR3, 48 h): 0.78 µg/mL (≈ 2.94 µM); MIC [4]: > 50 µg/mL; MIC ([5]; ATCC29212, read-out: MIC E. faecalis G+): > 50 µg/mL; MIC ([6]; ATCC700603, read-out: MIC K. pneumonia G−): > 50 µg/mL; MIC ([7]; ATCC25923, read-out: MIC S. aureus G+, broth dilution, triplicate): 3.2 to 5.7 µg/mL (≈ 12.1 to 21.5 µM); MIC ([8]; ATCC12453, read-out: MIC P. mirabilis G+): 24.8 µg/mL (≈ 93.5 µM); MIC ([9]; ATCC25922, read-out: MIC E. coli G−): > 50 µg/mL |
| CN(C1=C(Cl)C(=O)c2ccccc2C1=O)c1ccccc1 [Compound 12] | 2.33 ± 0.02 | 62.0 ± 5.0 | 0.8 | 25.0 ± 5.0 | > 1 | 50 (≈ 168 µM) | 47.2 (≈ 159 µM) | > 50 | 29 (≈ 97.4 µM) | 11.5 (≈ 38.6 µM) | 28.6 (≈ 96.1 µM) |  |  |
| Cc1nnc(SCC2=C(C(=O)O)N3C(=O)[C@@H](NC(=O)Cn4cnnn4)[C@H]3SC2)s1 [CFZ, cefazolin, reference compound] |  |  |  |  |  | 7.1 (≈ 15.6 µM) | 8.4 (≈ 18.5 µM) | 8.5 (≈ 18.7 µM) | 4.2 (≈ 9.24 µM) | 5.6 (≈ 12.3 µM) | > 50 |  |  |
| COc1ccc(OC)c(NC2=CC(=O)c3ccccc3C2=O)c1 [Compound 9] | 1.6 ± 0.23 | 33.0 ± 1.0 | > 1 | 24.0 ± 2.0 | > 1 | 43.8 (≈ 142 µM) | 38.2 (≈ 123 µM) | > 50 | > 50 | 29.9 (≈ 96.7 µM) | > 50 |  |  |
| COc1ccc(OC)c(NC2=C(Cl)C(=O)c3ccccc3C2=O)c1 [Compound 10] | 1.94 ± 0.56 | 20.0 ± 3.0 | > 1 | 21.0 ± 4.0 | > 1 | 31.7 (≈ 92.2 µM) | 70.8 (≈ 206 µM) | > 50 | 3.2 to 5.7 (≈ 9.31 to 16.6 µM) | > 50 | 23.5 (≈ 68.4 µM) | 4.7 (≈ 13.7 µM) |  |
| O=C1C(Cl)=C(Nc2ccccc2)C(=O)c2ccccc21 [Compound 2] | 1.61 ± 0.11 | 37.0 ± 1.0 | > 1 | 13.0 ± 2.0 | > 1 | > 50 | > 50 | > 50 | 36.5 (≈ 129 µM) | 39.9 (≈ 141 µM) | > 50 |  |  |
| CO/N=C(\C(=O)N[C@@H]1C(=O)N2C(C(=O)O)=C(COC(C)=O)CS[C@H]12)c1csc(N)n1 [CTX, cefotaxime, reference compound] |  |  |  |  |  | 8.2 (≈ 18 µM) | 10.9 (≈ 23.9 µM) | 8.4 (≈ 18.4 µM) | 8.9 (≈ 19.5 µM) | 8.9 (≈ 19.5 µM) | > 50 |  |  |
| Cc1ccccc1NC1=C(Cl)C(=O)c2ccccc2C1=O [Compound 4] | 2.2 ± 0.13 | 42.0 ± 2.0 | > 1 | 56.0 ± 1.0 | 0.86 (≈ 2.89 µM) | 32.5 (≈ 109 µM) | 37.1 (≈ 125 µM) | 44.6 (≈ 150 µM) | > 50 | 40.9 (≈ 137 µM) | > 50 |  |  |
| CCN(CC)CCCC(C)Nc1ccnc2cc(Cl)ccc12 (stereo not drawn) [CQ, chloroquine, reference compound] |  |  |  |  |  |  |  |  |  |  |  |  | Plasmodium falciparum 3D7 IC50 [2, 10]: 0.06 µg/mL; IC50 ([3]; FCR3, 48 h): 0.33 µg/mL (≈ 1.03 µM) |
